Source: ChEMBL document CHEMBL1146539, “Homopseudopteroxazole, a new antimycobacterial diterpene alkaloid from Pseudopterogorgia elisabethae” (2003)
Values after ≈ are worked out from the molar mass of the structure shown.

System: Mycobacterium tuberculosis
Test: Antimycobacterial activity against Mycobacterium tuberculosis H37Rv
Format: functional
Settings: for MIC: Mycobacterium tuberculosis, H37Rv

Compound | inhibition (INH) [%] | MIC [µg/mL]
CC(C)=C[C@@H]1C[C@H](C)[C@H]2CC[C@H](C)c3c2c1c(C)c1ncoc31 [PSEUDOPTEROXAZOLE] | 97 | 12.5 (≈ 40.4 µM)
CCCCCc1nc2c(C)c3c4c(c2o1)[C@@H](C)CC[C@@H]4[C@@H](C)C[C@H]3C=C(C)C [HOMOPSEUDOPTEROXAZOLE] | 80 | 12.5 (≈ 32.9 µM)
CC(C)=CCC[C@H](C)[C@H]1CC[C@H](C)c2c1cc(C)c1ncoc21 | 66 | 12.5 (≈ 40.1 µM)
